Results taken from patent US20100016388A1, “Salts of a Selective Beta-2 Andrenoceptor Agonist” (priority 2007, published 2010).
Where a name gives a salt, the structure may show the parent alone.

Target: T1, Adrenergic β2 (Homo sapiens, UniProt P07550)
T1 construct: Adherent H292 cells were removed from tissue culture flasks; endogenous in cells; host or cells: H292 cells
Test: Adrenergic β2 mediated cAMP production in H292 cells (AlphaScreen)
Assay type: cell-based
Details: Intrinsic Activity as a fraction relative to the maximum activity determined for formoterol
Experimental: Adrenergic β2 Mediated cAMP Production
H292 cells were grown in 225 cm2 flasks incubator at 37° C., 5% CO2 in RPMI medium containing, 10% (v/v) FBS (foetal bovine serum) and 2 mM L-glutamine.
Adherent H292 cells were removed from tissue culture flasks by treatment with Accutase™ cell detachment solution for 15 minutes. Flasks were incubated for 15 minutes in a humidified incubator at 37° C., 5% CO2. Detached cells were re-suspended in RPMI media (containing 10% (v/v) FBS and 2 mM L-glutamine) at 0.05×10^6 cells per mL. 5000 cells in 100 μL were added to each well of a tissue-culture-treated 96-well plate and the cells incubated overnight in a humidified incubator at 37° C., 5% CO2. The culture media was removed and cells were washed twice with 100 μL assay buffer and replaced with 50 μL assay buffer (HBSS solution containing 10 mM HEPES pH7.4 and 5 mM glucose). […]
The concentration of cAMP (cyclic adenosine monophosphate) in the cell lysate was determined using AlphaScreen™ methodology. […] The AlphaScreen™ signal was measured using an EnVision spectrophotometer (Perkin-Elmer Inc.) with the recommended manufacturer's settings. cAMP concentrations were determined by reference to a calibration curve determined in the same experiment using standard cAMP concentrations. […] Intrinsic Activity was expressed as a fraction relative to the maximum activity determined for formoterol in each experiment.

T1 sequence (P07550 whole entry): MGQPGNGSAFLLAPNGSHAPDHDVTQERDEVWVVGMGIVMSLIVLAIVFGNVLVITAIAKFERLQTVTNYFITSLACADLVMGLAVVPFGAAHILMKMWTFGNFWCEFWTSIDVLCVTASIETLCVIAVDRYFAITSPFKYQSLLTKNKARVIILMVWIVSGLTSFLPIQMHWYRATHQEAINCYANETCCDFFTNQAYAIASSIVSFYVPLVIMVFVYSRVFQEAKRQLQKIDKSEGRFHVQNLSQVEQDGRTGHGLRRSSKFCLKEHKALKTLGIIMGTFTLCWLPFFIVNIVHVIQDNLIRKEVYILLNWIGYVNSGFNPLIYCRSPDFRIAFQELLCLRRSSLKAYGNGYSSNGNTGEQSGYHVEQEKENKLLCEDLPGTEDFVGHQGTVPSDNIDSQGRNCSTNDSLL

Structure (SMILES): O=c1[nH]c2c(O)ccc([C@@H](O)CNCCSCCCNCCc3ccccc3Cl)c2s1 [Compound A, 7-[(1R)-2-({2-[(3-{[2-(2-Chlorophenyl)ethyl]amino}-propyl)thio]ethyl}amino)-1-hydroxyethyl]-4-hydroxy-1,3-benzothiazol-2(3H)-one dihydrobromide]
- β2 Int Act: 0.8
